The source of these data is patent US11554116B2, “Agent for preventing and/or treating alzheimer's disease” (KYOTO UNIVERSITY, priority 2017, dated 2023).

Structures can show the parent of a compound that is named as a salt. Where two headings read alike, the source gives them in different places.

The experiment has as its system Aβ production (Aβ1-40, 1-42 in culture supernatant). The experiment in a line: Aβ assay in cerebral cortex nerve cells induced from familial AD patient iPS cells (PSEN1 G384A). Type of experiment: cell-based, human.
[1] abbreviates: added at 0.0016, 0.008, 0.04, 0.2, 1, 5, 25 μM to cerebral cortex nerve cells, 48 hr.

For `CN1C[C@H](C(=O)N[C@]2(C)O[C@@]3(O)[C@@H]4CCCN4C(=O)[C@H](Cc4ccccc4)N3C2=O)C[C@@H]2c3cccc4[nH]cc(c34)C[C@H]21.CS(=O)(=O)O` [Dihydroergotamine Mesylate, dihydroergotamine], the Aβ production-lowering action result was “showed a similar Aβ production-lowering action”. The same measure, in the same setting: the result for `CN1C[C@H](C(=O)N[C@]2(C)O[C@@]3(O)[C@@H]4CCCN4C(=O)[C@H](Cc4ccccc4)N3C2=O)C=C2c3cccc4[nH]cc(c34)C[C@H]21.CN1C[C@H](C(=O)N[C@]2(C)O[C@@]3(O)[C@@H]4CCCN4C(=O)[C@H](Cc4ccccc4)N3C2=O)C=C2c3cccc4[nH]cc(c34)C[C@H]21.O=C(O)C(O)C(O)C(=O)O` [Ergotamine Tartrate, ergotamine] reads “showed a similar Aβ production-lowering action”. `Cl.NCCc1ccc(O)c(O)c1` [dopamine hydrochloride]: the “change of Aβ production” value is “none of the compounds changed Aβ production”. `CC(C)C[C@H]1C(=O)N2CCC[C@H]2[C@]2(O)O[C@](NC(=O)[C@@H]3C=C4c5cccc6[nH]cc(c56)C[C@H]4N(C)C3)(C(C)C)C(=O)N12` [Alpha-Ergocryptine, α-ergocryptine]: the Aβ42/40 ratio result is “did not change”; the Aβ production-lowering action entry is reported as “showed an Aβ production-lowering action similar to that of bromocriptine”; the “lowering of Aβ42 subtype compared with Aβ40” value was “lowered Aβ40 and 42 to the same degree”. On to `Oc1cc2c(cc1O)C(c1ccccc1)CNCC2` (stereo not drawn) [SKF38393], for which the “change of Aβ production” value under setting [1] is “none of the compounds changed Aβ production”. For the compound `C=CCN1C[C@H](C(=O)N(CCCN(C)C)C(=O)NCC)C[C@@H]2c3cccc4[nH]cc(c34)C[C@H]21` [Cabergoline], the Aβ production-lowering action result (at 25 μM, cerebral cortex nerve cells, 48 hr) was “showed an Aβ production-lowering action”. For `CCCN[C@H]1CCc2nc(N)sc2C1` [Pramipexole dihydrochloride], the “change of Aβ production” value under setting [1] is reported as “none of the compounds changed Aβ production”.

For `CC(C)C[C@H]1C(=O)N2CCC[C@H]2[C@]2(O)O[C@](NC(=O)[C@@H]3C=C4c5cccc6[nH]c(Br)c(c56)C[C@H]4N(C)C3)(C(C)C)C(=O)N12` [bromocriptine], the Aβ42/40 ratio result is given as “lower Aβ42/40 ratio”, the Aβ production-lowering action entry was “decreases the production of Aβ” and the “lowering of Aβ42 subtype compared with Aβ40” value is on record as “more efficiently reduced the production of Aβ42 subtype than Aβ40”.

As for `Cc1cccc(C(=O)NCN2CCN(c3ccccc3C#N)CC2)c1` [PD168077], the “change of Aβ production” value under setting [1] was “none of the compounds changed Aβ production”. On to `CC(C)[C@@]1(NC(=O)[C@@H]2C=C3c4cccc5[nH]cc(c45)C[C@H]3N(C)C2)O[C@@]2(O)[C@@H]3CCCN3C(=O)[C@H](Cc3ccccc3)N2C1=O` [Ergocristine, ergocristine], for which the Aβ production-lowering action result was “showed a similar Aβ production-lowering action”. Regarding `C=CCN1CCc2nc(N)sc2CC1` [Talipexole], the “change of Aβ production” value under setting [1] is given as “none of the compounds changed Aβ production”. With `CCCN1C[C@H](CSC)C[C@@H]2c3cccc4[nH]cc(c34)C[C@H]21` [Pergolide mesylate], the Aβ production-lowering action result (at 5, 25 μM, cerebral cortex nerve cells, 48 hr) is on record as “showed an Aβ production-lowering action”. As for `CCCN(CCC)CCc1cccc2c1CC(=O)N2` [Ropinirole hydrochloride], under setting [1], the “change of Aβ production” value is reported as “none of the compounds changed Aβ production”. In the case of `CC(C)[C@@]1(NC(=O)[C@@H]2C[C@@H]3c4cccc5[nH]cc(c45)C[C@H]3N(C)C2)O[C@@]2(O)[C@@H]3CCCN3C(=O)[C@H](Cc3ccccc3)N2C1=O` [Dihydroergocristine mesylate, dihydroergocristine], the Aβ production-lowering action entry was “showed a similar Aβ production-lowering action”.
